From article PMC9596378, “Discovery and molecular basis of subtype-selective cyclophilin inhibitors” (Nature Chemical Biology, 2022)
“And” between values parts separate entries of the source, which are not always exact repeats. Equal entries are not always repeated.

Experiments:
Experiment in all cases: Chymotrypsin coupled prolyl-isomerase assay
Assay type in all cases: biochemical
CypA = biological target: T1, CypA (Homo sapiens, UniProt P62937); details: for prolyl-isomerase activity (raw dose-response value): CypA, in s^-1
T1 construct: PPIA (UniProtKB Entry P62937: residues 1–165); made in house; host or cells: E. coli BL21(DE3)
Protocol: (§1) Adapting a previously described protocol, with an Agilent Bravo Velocity 11 with a 384ST head, 90 µL assay buffer (25 mM HEPES pH 7.3, 100 mM NaCl, 0.01% Triton X-100) containing 5.28 nM cyclophilin was added into a flat, clear-bottom, black 384-well plate pre-chilled in a Corning CoolBox at 2–3 °C. Five microliters of compound pre-dissolved in 5% DMSO/assay buffer was then added to appropriate wells and incubated at 2–3 °C for 5 min. Five microliters of 0.5 mM α-chymotrypsin from bovine pancreas (Type II, lyophilized powder, Millipore-Sigma) in 20% 1 mM HCl/Assay Buffer was then added to each well and incubated at 2–3 °C for 5 min. The plate was then quickly transferred to a FLIPR Tetra High-Throughput Cellular Screening System (Molecular Devices). Using the internal liquid handling system of the FLIPR, 1 µL 0.5 mM Suc-AAPF-AMC (Chymotrypsin Substrate II, Millipore-Sigma) dissolved in 0.55 M LiCl/2,2,2-trifluoroethanol was added to each well, which was then mixed for 5 s, followed by immediate fluorescence measurements every 1 s for 330 s using a 360–380 nm excitation LED module and a 400–460 nm emission filter. Final concentrations of the plate include 5 nM cyclophilin, 0.25% DMSO, 25 µM α-chymotrypsin, 5 µM Suc-AAPF-AMC. Raw fluorescence data was analyzed by non-linear regression analysis with Prism v.9 by fitting one-phase association curves to each well. […] Rate constants calculated for each well (s^−1) were then normalized to substrate only (no prolyl-isomerase) and enzyme + substrate only controls. IC50 values were calculated as the value at which 50% inhibition was achieved on the non-linear regression fitted curve of each compound.

CypE = biological target: T2, CypE (Homo sapiens, UniProt Q9UNP9); details: for prolyl-isomerase activity (raw dose-response value): CypE, in s^-1
T2 construct: PPIE (UniProtKB Entry Q9UNP9: residues 131–301); host or cells: E. coli BL21(DE3)
Protocol: as §1

CypC = biological target: T3, CypC (Homo sapiens, UniProt P45877); details: for prolyl-isomerase activity (raw dose-response value): CypC, in s^-1
T3 construct: PPIC (UniProtKB Entry P45877: residues 24–212); host or cells: E. coli BL21(DE3)
Protocol: as §1

CypG = biological target: T4, CypG (Homo sapiens, UniProt Q13427); details: for prolyl-isomerase activity (raw dose-response value): CypG, in s^-1
T4 construct: PPIG (UniProtKB Entry Q13427: residues 1–179); His6 with thrombin site (pET28a LIC leader) (N); host or cells: E. coli BL21(DE3)
T4 sequence (Q13427 1-179): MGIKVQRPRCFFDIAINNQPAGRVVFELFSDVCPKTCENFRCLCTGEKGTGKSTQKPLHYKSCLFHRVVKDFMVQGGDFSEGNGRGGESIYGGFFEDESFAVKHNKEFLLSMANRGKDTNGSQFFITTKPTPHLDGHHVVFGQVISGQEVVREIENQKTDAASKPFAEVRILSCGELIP
Protocol: as §1

T2 sequence (Q9UNP9 131-301): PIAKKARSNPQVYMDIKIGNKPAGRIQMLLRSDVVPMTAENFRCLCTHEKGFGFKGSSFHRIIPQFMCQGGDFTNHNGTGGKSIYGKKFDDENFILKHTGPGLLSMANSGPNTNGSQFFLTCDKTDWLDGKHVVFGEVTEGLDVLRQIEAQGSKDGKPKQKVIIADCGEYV
T3 sequence (P45877 24-212): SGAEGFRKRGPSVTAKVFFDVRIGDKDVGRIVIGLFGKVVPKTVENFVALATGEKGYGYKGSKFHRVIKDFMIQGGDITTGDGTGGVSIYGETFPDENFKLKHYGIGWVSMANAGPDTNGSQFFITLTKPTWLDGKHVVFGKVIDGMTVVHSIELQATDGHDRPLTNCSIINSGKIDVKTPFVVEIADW
T1 sequence (P62937 whole entry, the tested form may be a part): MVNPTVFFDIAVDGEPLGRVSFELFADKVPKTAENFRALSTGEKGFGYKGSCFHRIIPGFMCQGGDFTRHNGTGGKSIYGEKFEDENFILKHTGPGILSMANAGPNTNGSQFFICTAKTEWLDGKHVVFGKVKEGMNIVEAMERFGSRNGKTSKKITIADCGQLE

## NCCOCCNC(=O)[C@@H]1CCNC(=O)/C=C/C(=O)N2CCC[C@](Cc3ccccc3)(C2)C(=O)N[C@@H](Cc2ccc(C(=O)c3ccccc3)cc2)C(=O)NCc2ccccc2CC(=O)N1 [Compound B1]
CypA; dose 0.0308642 µM
  prolyl-isomerase activity (raw dose-response value): 0.0846 and 0.08188 and 0.08679
CypA; dose 0.0925926 µM
  prolyl-isomerase activity (raw dose-response value): 0.06244 and 0.05553 and 0.05478
CypA; dose 0.277778 µM
  prolyl-isomerase activity (raw dose-response value): 0.04513 and 0.03865 and 0.03913
CypA; dose 0.833333 µM
  prolyl-isomerase activity (raw dose-response value): 0.02761 and 0.02378 and 0.02924
CypA; dose 2.5 µM
  prolyl-isomerase activity (raw dose-response value): 0.01703 and 0.01931 and 0.02247
CypA; wild-type CypA, read-out: Wild-Type Cyclophilin Prolyl Isomerase Inhibition IC50 Values, CypA
  IC50: 70 nM
CypE; dose 0.00244141 µM
  prolyl-isomerase activity (raw dose-response value): 0.1145 and 0.1032 and 0.1074
CypE; dose 0.00488281 µM
  prolyl-isomerase activity (raw dose-response value): 0.1194 and 0.1024 and 0.1063
CypE; dose 0.00976562 µM
  prolyl-isomerase activity (raw dose-response value): 0.1019 and 0.09727 and 0.09617
CypE; dose 0.0195312 µM
  prolyl-isomerase activity (raw dose-response value): 0.09053 and 0.08335 and 0.08401
CypE; dose 0.0390625 µM
  prolyl-isomerase activity (raw dose-response value): 0.08777 and 0.07578 and 0.07602
CypE; dose 0.078125 µM
  prolyl-isomerase activity (raw dose-response value): 0.06552 and 0.06127 and 0.05879
CypE; dose 0.15625 µM
  prolyl-isomerase activity (raw dose-response value): 0.05184 and 0.04744 and 0.04506
CypE; dose 0.3125 µM
  prolyl-isomerase activity (raw dose-response value): 0.04144 and 0.0397 and 0.03654
CypE; dose 0.625 µM
  prolyl-isomerase activity (raw dose-response value): 0.03167 and 0.02791 and 0.02701
CypE; dose 1.25 µM
  prolyl-isomerase activity (raw dose-response value): 0.02174 and 0.02048 and 0.01944
CypE; dose 2.5 µM
  prolyl-isomerase activity (raw dose-response value): 0.0149 and 0.01299 and 0.01222
CypE; wild-type CypE, read-out: Wild-Type Cyclophilin Prolyl Isomerase Inhibition IC50 Values, CypE
  IC50: 99 nM
CypC; dose 0.00244141 µM
  prolyl-isomerase activity (raw dose-response value): 0.04561 and 0.0417 and 0.04308
CypC; dose 0.00488281 µM
  prolyl-isomerase activity (raw dose-response value): 0.04435 and 0.04111 and 0.04239
CypC; dose 0.00976562 µM
  prolyl-isomerase activity (raw dose-response value): 0.04356 and 0.0401 and 0.04072
CypC; dose 0.0195312 µM
  prolyl-isomerase activity (raw dose-response value): 0.03963 and 0.03695 and 0.03646
CypC; dose 0.0390625 µM
  prolyl-isomerase activity (raw dose-response value): 0.035 and 0.03188 and 0.03161
CypC; dose 0.078125 µM
  prolyl-isomerase activity (raw dose-response value): 0.02847 and 0.0253 and 0.02646
CypC; dose 0.15625 µM
  prolyl-isomerase activity (raw dose-response value): 0.02267 and 0.02159 and 0.02162
CypC; dose 0.3125 µM
  prolyl-isomerase activity (raw dose-response value): 0.01917 and 0.0189 and 0.01739
CypC; dose 0.625 µM
  prolyl-isomerase activity (raw dose-response value): 0.01677 and 0.01627 and 0.01518
CypC; dose 1.25 µM
  prolyl-isomerase activity (raw dose-response value): 0.01345 and 0.01256 and 0.01367
CypC; dose 2.5 µM
  prolyl-isomerase activity (raw dose-response value): 0.009144 and 0.00999 and 0.01009
CypC; wild-type CypC, read-out: Wild-Type Cyclophilin Prolyl Isomerase Inhibition IC50 Values, CypC
  IC50: 79 nM
CypG; dose 6.125 µM
  prolyl-isomerase activity (raw dose-response value): 0.0775 and 0.0774 and 0.07959
CypG; dose 12.5 µM
  prolyl-isomerase activity (raw dose-response value): 0.07476 and 0.07359 and 0.07437
CypG; dose 25 µM
  prolyl-isomerase activity (raw dose-response value): 0.06566 and 0.06625 and 0.06165
CypG; dose 50 µM
  prolyl-isomerase activity (raw dose-response value): 0.05369 and 0.05651 and 0.05019
CypG; dose 100 µM
  prolyl-isomerase activity (raw dose-response value): 0.03357 and 0.03853 and 0.03559
CypG; wild-type CypG, read-out: Wild-Type Cyclophilin Prolyl Isomerase Inhibition IC50 Values, CypG
  IC50: 70000 nM
